Tested on: DUX4
Experiment: DUX4 repression assay in primary FSHD cells (protocol of Example 2 of WO2019/115711)
Assay type: cell-based, human
Settings: incubated 72 hours, reference compounds
Description: Following the central role of DUX4 in the consensus disease hypothesis for FSHD, a therapeutic approach with a disease-modifying potential is expected to rely on the inhibition of DUX4. The inventors have identified the compounds according to the invention as being able to achieve DUX4 repression in muscle cells. This invention has been made using primary FSHD patient-derived muscle cells. Because of the primate-specificity of the FSHD locus and questionable relevance of recombinant, immortalized, or tumorigenic cell or animal models to study endogenous DUX4 regulatory mechanisms, primary patient-derived muscle cells are the most relevant disease model. Assays based on immortalized cells bear the risk of altered epigenomes, thereby limiting their relevance in studying the endogenous regulation of DUX4 expression. Particularly the subtelomeric location of D4Z4 and the importance of the D4Z4 epigenome in the stability of DUX4 repression (Stadler et al., 2013, DOI: 10.1038/nsmb.2571) underscore the necessity of using primary muscle cells to discover physiologically relevant drug targets that regulate the expression of DUX4.
The DUX4 repression of compounds of general formula (I) was assayed following a known protocol (the protocol of Example 2 of WO2019/115711). Several compounds were incubated with primary FSHD cells for 72 hours. Results are shown in Table 4, showing DUX4 Count % inhibition.

SMILES | DUX4 count % inhibition [%]
CN1CCN(C(=O)Cc2nn(C(C)(C)C)c(-c3ccc(F)cc3)c2-c2ccncc2)CC1 [Compound 106, 2-[1-tert-butyl-5-(4-fluorophenyl)-4-(pyridin-4-yl)-1H-pyrazol-3-yl]-1-(4-methylpiperazin-1-yl)ethan-1-one] | 17.3
O=C(Cn1cnc(-c2ccc(F)cc2)c1-c1cccnc1)N1CCNCC1 [Compound 108, 2-[4-(4-fluorophenyl)-5-(pyridin-3-yl)-1H-imidazol-1-yl]-1-(piperazin-1-yl)ethan-1-one] | 6.6
CN1CCN(C(=O)Cn2cnc(-c3ccc(F)cc3)c2-c2cccnc2)CC1 [Compound 107, 2-[4-(4-fluorophenyl)-5-(pyridin-3-yl)-1H-imidazol-1-yl]-1-(4-methylpiperazin-1-yl)ethan-1-one] | 10.7

Source: US20230052017A1, “New compounds for treatment of diseases related to DUX4 expression” (Facio Intellectual Property B.V., priority 2019, published 2023)
